Reference: PMC7068811 (Frontiers in Immunology, 2020)
Where no end group is shown, it is not given here.

How the values were obtained:
human PD1 = human PD1 (Homo sapiens, UniProt Q15116); assay: Biacore surface plasmon resonance, binding to human PD1; conditions: for KA: 25°C, HEPES pH 7.4; for Rmax: maximum binding capacity
Procedure: (§1) Binding experiments were performed on a Biacore T-200 (GE Healthcare Life Sciences, Buckinghamshire, UK) at 25°C. The assay buffer was 10 mM HEPES buffer (pH 7.4), 150 mM NaCl, 3 mM EDTA, and 0.05% P20. The regeneration buffer was 10 mM HEPES buffer (pH 7.4), 150 mM NaCl, 3 mM EDTA, and 0.05% P20. The immobilization buffer was 10 mM sodium acetate at pH 5.0. The flow rate used for immobilizing the ligand was 5 μL/min. The flow rate for kinetics analysis was 30 μL/min. In initial scouting experiments, 12,000 RU of human and 6000 RU of mouse PD1 receptors were directly immobilized on flow cell 2 and flow cell 4 of the CM5 chip using an amine coupling method (EDC/NHS). The unoccupied sites were blocked with 1M ethanol amine. […] Flow cell 1 was kept blank and used for reference subtraction. Binding of an analyte to the ligand was monitored in real-time. Based on the scouting results, full kinetics were performed by immobilizing 10,000 RU of the ligand to a new chip using an analyte concentration of 25 μM, followed by serial dilution to 12.5, 6.25, 3.125, 1.562, 0.78, and 0 μM concentration, or as indicated. Data analysis was performed using software for Biacore 3000, because it has more flexibility in terms of obtaining the binding characteristics with a limited analyte concentration range. […] Chi-square (χ^2) analysis was performed between the actual sensorgram and the sensorgram generated from the BIAnalysis software to determine the accuracy of the analysis. A χ^2 value within 1–2 was considered to be significant (accurate) and below 1 was considered to be highly significant (highly accurate).
(§2) The four peptides identified by phage display were then tested for binding to human and mouse PD1 using the surface plasmon resonance technique.

mouse PD1 = molecular target: T1, mouse PD1 (Mus musculus, UniProt Q02242); assay: Biacore surface plasmon resonance, binding to mouse PD1; conditions: for relative affinity for mouse PD1: compared to WQ20 and HD20 (Table 2); for KA: 25°C, HEPES pH 7.4
T1 sequence (Q02242 25-288): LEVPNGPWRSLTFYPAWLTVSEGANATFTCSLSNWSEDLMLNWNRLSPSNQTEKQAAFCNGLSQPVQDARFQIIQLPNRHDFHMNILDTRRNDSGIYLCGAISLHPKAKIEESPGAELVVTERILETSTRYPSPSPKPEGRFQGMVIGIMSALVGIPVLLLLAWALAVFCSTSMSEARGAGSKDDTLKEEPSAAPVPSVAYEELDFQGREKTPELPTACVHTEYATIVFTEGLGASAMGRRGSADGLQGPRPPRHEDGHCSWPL
Procedure: as §1, §2

[1] = test system: human PD1 on Jurkat T cells; assay: Competitive inhibition of PD-L1-Fc binding to Jurkat cells overexpressing human PD1; format: cell-based; conditions: 10 μM peptide, 30 min on ice, PD-L1-Fc 4 μg/mL; flow cytometry MFI normalized to no peptide; duplicates
human PBMC = format: cell-based
P. yoelii sporozoites = assay: Sporozoite challenge and protection against malaria; format: in vivo, Plasmodium yoelii (17XNL) in BALB/c mice; conditions: AdPyCS 10^9 virus particles IM; 200 μg IP days 1, 3, 5, 7 where treated; challenge day 12; n = 20/group
Source text: Six- to eight-week-old female BALB/c mice were purchased from Taconic (Germantown, NY, USA). All mice were maintained under standard conditions in the Laboratory Animal Research Center of the Rockefeller University, and the protocol was approved by the Institutional Animal Care and Use Committee at the Rockefeller University (Assurance no. A3081-01). A recombinant serotype 5 adenovirus, AdPyCS that expressed Plasmodium yoelii circumsporozoite protein (PyCS) was constructed as previously described ([32]). Wild-type P. yoelii parasites of the 17 XNL strain were maintained in the insect facility of the Division of Parasitology, Department of Microbiology at New York University School of Medicine. […]
Sporozoite challenge experiments were performed as described previously ([32]–[35]). […] Parasitemia was monitored from days 3 to 8 after the sporozoite challenge, by detecting the presence of parasitized red blood cells in thin blood smears to assess for a complete protection against malaria. […]
To evaluate efficacy of the PD1 peptide antagonists as a prophylactic vaccine adjuvant, a rodent malaria model dependent on the generation of protective CD8 T cells was employed. […] On day 12, spleens were harvested and the number of splenic circumsporozoite protein (CS)-specific, IFN-γ-secreting CD8^+ T cells were assessed using an ELISpot assay. […]

[2] = human PD1, peptide analyte 0–25 μM
[3] = mouse PD1, peptide analyte 0–25 μM
[4] = mouse PD1, peptide analyte 0–25 μM, maximum binding capacity

human PD1, sequence (Q15116 25-288): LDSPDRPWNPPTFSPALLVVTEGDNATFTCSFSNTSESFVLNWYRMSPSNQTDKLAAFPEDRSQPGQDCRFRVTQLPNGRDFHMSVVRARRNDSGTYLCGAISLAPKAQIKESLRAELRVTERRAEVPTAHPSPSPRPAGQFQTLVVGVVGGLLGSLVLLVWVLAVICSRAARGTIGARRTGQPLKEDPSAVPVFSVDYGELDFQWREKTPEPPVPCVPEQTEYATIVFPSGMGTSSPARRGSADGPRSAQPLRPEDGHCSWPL

Substance | KA (human PD1; [2]) [M⁻¹] | Rmax (human PD1; [2]) [RU] | relative affinity for mouse PD1 (mouse PD1) | KA (mouse PD1; [3]) [M⁻¹] | Rmax (mouse PD1; [4]) [RU] | reduction in PD-L1-Fc binding [1] [%] | cytokine secretion (IFN-γ, IL-17, IL-6) (human PBMC) | Rmax (mouse PD1; mouse PD1, mouse PD-L1 analyte 0–50 (head μM)) [RU] | Rmax (mouse PD1; mouse PD1, mouse PD-L1 analyte 0–1000 (head μM)) | protection against malaria (P. yoelii sporozoites) | Rmax (human PD1; human PD1, peptide analyte 0–12.5 μM) [RU]
QTRTVPMPKIHHPPWQNVVP [QP20] | 93600 | 3.83 | bound to mouse PD1 with a higher affinity compared to WQ20 and HD20 | 18000 | 13.4 | < 30 | With the exception of QP20, the other PD1-binding peptides significantly increased cytokine secretion at 200 μM relative to tetanus alone | – | – | – | –
SSYHHFKMPELHFGKNTFHQ [SQ20] | 194000 | 4.05 | bound to mouse PD1 with a higher affinity compared to WQ20 and HD20 | 21400 | 12.8 | > 30 | – | – | – | – | –
Mouse PD-L1: mouse PD-L1 analyte [reference compound] | – | – | – | – | – | – | – | 259 | 1.07 × 10^3 RU | – | –
negative control peptide: control peptide is the OVA323−339 peptide (malaria model) (KISQAVHAAHAEINEAG; UniProt P01012 323-339, looked up, fragment) | – | – | – | – | – | – | – | – | – | no protection | –
HHHQVYQVRSHWTGMHSGHD [HD20] | – | – | – | 4250 | 76 | < 30 | – | – | – | – | 3.35
